The values below come from patent US4698352A, “4-oxo-1,4-dihydronicotinic acid derivatives, salts thereof, and antibacterial agents containing the same” (Toyama Chemical Co., Ltd., priority 1982, dated 1987).

Each structure is given as a SMILES string. In brackets after ≈: the same amount, converted by molar mass. Where two headings read alike, the source gives them in different places.

Experiment in all cases: Antibacterial activity (MIC), agar dilution
Assay type in all cases: cell-based

One assay relates to Aci. antitratus A-6. The settings on record: 20 h, Aci. antitratus A-6; 10^6 cells per ml; 37° C., 20 hours; read-out: MIC. The source says:
(§1) The amount of bacteria inoculated was 10^4 cells per plate (10^6 cells per ml).

Another assay relates to E. coli NIHJ JC-2. The settings on record: Escherichia coli, NIHJJC2, 20 h.
From the text: as §1

The next assay has as its system E. coli TK-111. The following applies: Escherichia coli, TK111, 20 h, E. coli TK-111; 10^6 cells per ml; 37° C., 20 hours; read-out: MIC.
From the text: as §1

Another assay concerns Ent. cloacae IID977. The following applies: Enterobacter cloacae, IID977, 20 h.
From the text: as §1

The next assay concerns Kl. pneumoniae Y-41. The following applies: Klebsiella pneumoniae, Y41, 10^6 cells per ml, 37° C., 20 hours, read-out: MIC.
From the text: as §1

In another assay the test system is Kl. pneumoniae Y-50. The settings on record: Klebsiella pneumoniae, Y50, 20 h, 10^6 cells per ml, 37° C., read-out: MIC.
From the text: as §1

The subject of the next assay is Pro. mirabilis T-111. The following applies: Proteus mirabilis, 37° C.
From the text: as §1

Another assay relates to Pro. morganii T-216. The following applies: Morganella morganii, 37° C.
From the text: as §1

The test system of another assay is Pro. vulgaris GN3027. The settings on record: Proteus vulgaris, GN3027, 20 h, Pro. vulgaris GN3027; 10^6 cells per ml; 37° C., 20 hours; read-out: MIC.
From the text: as §1

For another assay, the system named is Ps. aeruginosa IFO3445. The following applies: Pseudomonas aeruginosa.
From the text: as §1

The test system of a further assay is Ps. aeruginosa S-68. The settings on record: Pseudomonas aeruginosa, S68; Ps. aeruginosa S-68; 10^6 cells per ml; 37° C., 20 hours; read-out: MIC.
From the text: as §1

The next assay concerns St. aureus FDA209P. The settings on record: Staphylococcus aureus, FDA209P, 20 h.
From the text: as §1

Another assay relates to E. coli TK-3*. The following applies: Escherichia coli, 20 h.
From the text: as §1
(§2) * Penicillinase-producing bacteria

In another assay the test system is Kl. pneumoniae Y-4*. The settings on record: Klebsiella pneumoniae, 20 h, Kl. pneumoniae Y-4, penicillinase-producing; 10^6 cells per ml; read-out: MIC.
From the text: as §1, §2

For the next assay, the system named is Ps. aeruginosa GN3379*. The following applies: Pseudomonas aeruginosa, 20 h; Ps. aeruginosa GN3379, penicillinase-producing; 10^6 cells per ml; read-out: MIC.
From the text: as §1, §2

The next assay relates to St. aureus F-137*. The following applies: Staphylococcus aureus, 20 h, St. aureus F-137, penicillinase-producing; 10^6 cells per ml; read-out: MIC.
From the text: as §1, §2

The subject of a further assay is E. coli GN5482**. The following applies: Escherichia coli, 20 h; E. coli GN5482, cephalospolinase-producing; 10^6 cells per ml; read-out: MIC.
From the text: as §1
(§3) ** Cephalospolinase-producing bacteria

In the next assay the test system is Pro. vulgaris GN76**. The following applies: Proteus vulgaris, 20 h; Pro. vulgaris GN76, cephalospolinase-producing; 10^6 cells per ml; read-out: MIC.
From the text: as §1, §3

Another assay deals with Ps. aeruginosa GN918**. The settings on record: Pseudomonas aeruginosa, Ps. aeruginosa GN918, cephalospolinase-producing, 10^6 cells per ml.
From the text: as §1, §3

The mark [1] stands for this setting: E. coli NIHJ JC-2, 10^6 cells per ml, 37° C., 20 hours, read-out: MIC.
Setting [2] is: Ent. cloacae IID977, 10^6 cells per ml, 37° C., 20 hours, read-out: MIC.
[3] abbreviates: Ps. aeruginosa IFO3445, 10^6 cells per ml, 37° C., 20 hours, read-out: MIC.
[4] abbreviates: St. aureus FDA209P, 10^6 cells per ml, 37° C., 20 hours, read-out: MIC.
[5] abbreviates: E. coli TK-3, penicillinase-producing, 10^6 cells per ml, read-out: MIC.
[6] abbreviates: T111, 10^6 cells per ml, 20 hours, read-out: MIC.

Broadly, the MIC is the least concentration at which growth counts as inhibited. In the case of `Cc1cc(O)ccc1-n1cc(C(=O)O)c(=O)cc1-c1ccc2c(c1)NCCN2C`, the MIC turned out to be 1.56 µg/mL (≈ 3.99 µM) in the assay with Aci. antitratus A-6; 0.39 µg/mL (≈ 0.996 µM) with E. coli NIHJ JC-2 (setting [1]); 0.2 µg/mL (≈ 0.511 µM) in the assay with E. coli TK-111; 1.56 µg/mL (≈ 3.99 µM) in the assay with Ent. cloacae IID977 (setting [2]); 3.13 µg/mL (≈ 8 µM) in the assay on Kl. pneumoniae Y-41; 0.39 µg/mL (≈ 0.996 µM) in the assay on Kl. pneumoniae Y-50. In addition, the MIC was 3.13 µg/mL (≈ 8 µM) in the assay with Pro. mirabilis T-111 (T111, 20 h, 10^6 cells per ml); 3.13 µg/mL (≈ 8 µM) in the assay on Pro. morganii T-216 (T216, 20 h, 10^6 cells per ml); 0.78 µg/mL (≈ 1.99 µM) in the assay on Pro. vulgaris GN3027; 25 µg/mL (≈ 63.9 µM) in the assay with Ps. aeruginosa IFO3445 (setting [3]); 12.5 µg/mL (≈ 31.9 µM) in the assay with Ps. aeruginosa S-68; 0.78 µg/mL (≈ 1.99 µM) in the assay with St. aureus FDA209P (setting [4]). Besides, the MIC in the assay on E. coli TK-3* (setting [5]) is 0.78 µg/mL (≈ 1.99 µM); in the assay on Kl. pneumoniae Y-4*, 6.25 µg/mL (≈ 16 µM); with Ps. aeruginosa GN3379* it was 25 µg/mL (≈ 63.9 µM); in the assay with St. aureus F-137* it was 0.78 µg/mL (≈ 1.99 µM); in the assay on E. coli GN5482** it was 0.1 µg/mL (≈ 0.255 µM); in the assay on Pro. vulgaris GN76** it was 1.56 µg/mL (≈ 3.99 µM). This compound also showed an MIC with Ps. aeruginosa GN918** (GN918, 20 h) of 3.13 µg/mL (≈ 8 µM).
With `O=C(O)c1cn(-c2ccc(F)cc2)c(C=Cc2ccncc2)cc1=O`, the MIC with Aci. antitratus A-6 is 12.5 µg/mL (≈ 37.2 µM); in the assay with E. coli NIHJ JC-2 (setting [1]), 12.5 µg/mL (≈ 37.2 µM); in the assay on E. coli TK-111, 0.39 µg/mL (≈ 1.16 µM); in the assay with Ent. cloacae IID977 (setting [2]), 3.13 µg/mL (≈ 9.31 µM); in the assay with Kl. pneumoniae Y-41 it was 6.25 µg/mL (≈ 18.6 µM); with Kl. pneumoniae Y-50, 0.78 µg/mL (≈ 2.32 µM). Also, the MIC was 12.5 µg/mL (≈ 37.2 µM) with Pro. mirabilis T-111 (setting [6]); 6.25 µg/mL (≈ 18.6 µM) against Pro. morganii T-216 (T216, 20 h, 10^6 cells per ml); 0.2 µg/mL (≈ 0.595 µM) with Pro. vulgaris GN3027; 50 µg/mL (≈ 149 µM) in the assay on Ps. aeruginosa IFO3445 (setting [3]); 12.5 µg/mL (≈ 37.2 µM) in the assay with Ps. aeruginosa S-68; 12.5 µg/mL (≈ 37.2 µM) with St. aureus FDA209P (setting [4]). Besides, the minimum inhibitory concentration (MIC) in the assay on E. coli TK-3* (setting [5]) amounted to 1.56 µg/mL (≈ 4.64 µM); in the assay on Kl. pneumoniae Y-4* it was 6.25 µg/mL (≈ 18.6 µM); with Ps. aeruginosa GN3379*, 25 µg/mL (≈ 74.3 µM); in the assay with St. aureus F-137*, 12.5 µg/mL (≈ 37.2 µM); in the assay on E. coli GN5482** it was 0.2 µg/mL (≈ 0.595 µM); with Pro. vulgaris GN76** it was 0.78 µg/mL (≈ 2.32 µM). Also, the MIC in the assay on Ps. aeruginosa GN918** (20 h, read-out: MIC) amounted to 25 µg/mL (≈ 74.3 µM).
Consider `Nc1ccc(-c2cc(=O)c(C(=O)O)cn2-c2ccc(O)cc2)cc1`, for which the MIC in the assay with Aci. antitratus A-6 is 25 µg/mL (≈ 77.6 µM); against E. coli NIHJ JC-2, 3.13 µg/mL (≈ 9.71 µM); in the assay with E. coli TK-111, 0.78 µg/mL (≈ 2.42 µM); in the assay with Ent. cloacae IID977, 12.5 µg/mL (≈ 38.8 µM); with Kl. pneumoniae Y-41 it was 12.5 µg/mL (≈ 38.8 µM); with Kl. pneumoniae Y-50, 3.13 µg/mL (≈ 9.71 µM). The MIC in the assay on Pro. mirabilis T-111 (setting [6]) stood at 25 µg/mL (≈ 77.6 µM); in the assay on Pro. morganii T-216 (T216, 20 h, 10^6 cells per ml), 3.13 µg/mL (≈ 9.71 µM); with Pro. vulgaris GN3027 it was 0.39 µg/mL (≈ 1.21 µM); in the assay on Ps. aeruginosa IFO3445 (setting [3]), 25 µg/mL (≈ 77.6 µM); in the assay on Ps. aeruginosa S-68, 25 µg/mL (≈ 77.6 µM); with St. aureus FDA209P, 3.13 µg/mL (≈ 9.71 µM). In addition, the MIC amounted to 3.13 µg/mL (≈ 9.71 µM) with E. coli TK-3*; 12.5 µg/mL (≈ 38.8 µM) in the assay on Kl. pneumoniae Y-4*; 25 µg/mL (≈ 77.6 µM) in the assay with Ps. aeruginosa GN3379*; 6.25 µg/mL (≈ 19.4 µM) in the assay with St. aureus F-137*; 0.1 µg/mL (≈ 0.31 µM) with E. coli GN5482**; 1.56 µg/mL (≈ 4.84 µM) in the assay with Pro. vulgaris GN76**. Further, the MIC in the assay on Ps. aeruginosa GN918** (20 h, read-out: MIC) worked out at 25 µg/mL (≈ 77.6 µM).
In the case of `O=C(O)c1cn(-c2ccc(O)cc2)c(-c2ccc(-c3cccs3)cc2)cc1=O`, the MIC in the assay with Aci. antitratus A-6 is 0.1 µg/mL (≈ 0.257 µM); in the assay on E. coli NIHJ JC-2 (setting [1]), 0.1 µg/mL (≈ 0.257 µM); in the assay on E. coli TK-111, ≤ 0.05 µg/mL; in the assay with Ent. cloacae IID977 (setting [2]), 0.39 µg/mL (≈ 1 µM); in the assay with Kl. pneumoniae Y-41 it was 1.56 µg/mL (≈ 4.01 µM); in the assay on Kl. pneumoniae Y-50 it was 0.2 µg/mL (≈ 0.514 µM). In addition, the MIC is 0.39 µg/mL (≈ 1 µM) with Pro. mirabilis T-111 (setting [6]); 0.39 µg/mL (≈ 1 µM) with Pro. morganii T-216 (T216, 10^6 cells per ml, 20 hours, read-out: MIC); ≤ 0.05 µg/mL in the assay on Pro. vulgaris GN3027; 1.56 µg/mL (≈ 4.01 µM) against Ps. aeruginosa IFO3445 (IFO3445, 20 h); 3.13 µg/mL (≈ 8.04 µM) in the assay with Ps. aeruginosa S-68; ≤ 0.05 µg/mL in the assay on St. aureus FDA209P (setting [4]). In addition, the MIC was 0.39 µg/mL (≈ 1 µM) in the assay with E. coli TK-3* (setting [5]); 0.78 µg/mL (≈ 2 µM) in the assay on Kl. pneumoniae Y-4*; 3.13 µg/mL (≈ 8.04 µM) in the assay with Ps. aeruginosa GN3379*; ≤ 0.05 µg/mL in the assay with St. aureus F-137*; ≤ 0.05 µg/mL in the assay on E. coli GN5482**; 0.2 µg/mL (≈ 0.514 µM) in the assay with Pro. vulgaris GN76**. Moreover, in the assay on Ps. aeruginosa GN918** (20 h, read-out: MIC), the MIC was determined as 6.25 µg/mL (≈ 16 µM).
